Laboratory results: PMC4679366 (European journal of medicinal chemistry, 2014)
Where two headings read alike, the source gives them in different places.

Legend:
HepG2 liver cells = test: HepG2 toxicity assay; format: cell-based; conditions: Homo sapiens, HepG2, read-out: HepG2 IC50
[1] = tested on: P. falciparum NF54 late stage gametocytes (IV–V); test: Late stage P. falciparum; format: cell-based; conditions: Plasmodium falciparum, NF54, HN12, 72 h, read-out: Pf LSG IC50
P. falciparum 3D7 [2] = test: Asexual stage in vitro antimalarial assay, [3H]-hypoxanthine incorporation; format: cell-based; conditions: Plasmodium falciparum, 3D7, read-out: Pf 3D7 IC50
human HDAC5 = conditions: cited from earlier work
human HDAC4 = conditions: cited from earlier work
P. falciparum histone H3 = test: Histone hyperacetylation assay; format: cell-based, Plasmodium falciparum; conditions: 500 nM, 3 h, trophozoite-stage 3D7, Western blot anti-acetyl H3
[3] = tested on: P. berghei exo-erythrocytic forms (EEF); test: Pb liver stage assay; format: cell-based; conditions: Plasmodium berghei, 48 h, read-out: Pb EEF IC50, P. berghei exo-erythrocytic forms in HepG2-A16-CD81EGFP cells, 48 h
P. falciparum = conditions: read-out: P. falciparum IC50; cited from earlier work
P. falciparum 3D7 [4] = conditions: read-out: Pf 3D7 IC50, asexual blood stages; cited from earlier work
P. falciparum histone H4 = test: Histone hyperacetylation assay; format: cell-based, Plasmodium falciparum; conditions: 500 nM, 3 h, trophozoite-stage 3D7, Western blot anti-acetyl H4

In the case of `O=C1C(O)=C([C@H]2CC[C@H](c3ccc(Cl)cc3)CC2)C(=O)c2ccccc21` [Atovaquone], the IC50 (HepG2 liver cells) is reported as > 10000 nM.
In the case of `CCN(CC)CCCC(C)Nc1ccnc2cc(Cl)ccc12` (stereo not drawn) [Chloroquine], the IC50 [1] is reported as > 120000 nM and the IC50 (P. falciparum 3D7 [2]) is reported as 10 nM.
In the case of `Cc1cc(C)cc(C(=O)NOCCCCCC(=O)NO)c1` [Compound 1a], the “human HDAC5 IC50” value (human HDAC5) is listed as “low nanomolar” and the “human HDAC4 IC50” value (human HDAC4) is listed as “low nanomolar”.
For `Cc1ccc(C(=O)NOCCCCCC(=O)NO)cc1C` [Compound 1b], the “hyperacetylation of P. falciparum histone H3” value (P. falciparum histone H3) was “to a lesser extent”.
With `CCCOc1ccc(C(=O)NOCCCCCC(=O)NO)cc1` [Compound 1m, N-((6-(Hydroxyamino)-6-oxohexyl)oxy)-4-propoxybenzamide] the IC50 [3] was > 5000 nM.
For `CCCCCOc1ccc(C(=O)NOCCCCCC(=O)NO)cc1` [Compound 1n, N-((6-(Hydroxyamino)-6-oxohexyl)oxy)-4-(pentyloxy)benzamide], the IC50 [3] was > 5000 nM.
With `CCCCCCOc1ccc(C(=O)NOCCCCCC(=O)NO)cc1` [Compound 1s, 4-(Hexyloxy)-N-((6-(hydroxyamino)-6-oxohexyl)oxy)benzamide] the IC50 [3] was > 5000 nM.
In the case of `O=C(/C=C/c1ccccc1)N[C@@H](CCCCCC(=O)NO)C(=O)Nc1cccc2cccnc12` [Compound 2-ASA-9], the IC50 (P. falciparum) is listed as 15 to 39 nM.
For `O=C(CCCCCCC(=O)Nc1ccccc1)NO` [SAHA, suberoylanilide hydroxamic acid], the IC50 (P. falciparum 3D7 [4]) is listed as 130 nM.
For `CCCCc1nc2cc(/C=C/C(=O)NO)ccc2n1CCN(CC)CC` [SB939], the IC50 (P. falciparum) is given as 80 to 150 nM.
In the case of `CC(/C=C/C(=O)NO)=C\[C@@H](C)C(=O)c1ccc(N(C)C)cc1` [TSA, Trichostatin A], the IC50 (P. falciparum) is listed as 8 to 11 nM and the “hyperacetylation of P. falciparum histone H4” value (P. falciparum histone H4) is listed as “caused hyperacetylation”.
For `Nc1cccc(-c2csc(NC(=O)CCCCCCC(=O)NO)n2)c1` [WR301801 (YC-II-88)], the IC50 (P. falciparum) is listed as 0.6 to 1.8 nM.
